Data reported in ChEMBL document CHEMBL1141771, “p-Aminoacetophenonic acids produced by a mangrove endophyte: Streptomyces griseus subsp” (J Nat Prod, 2005).
Active and inactive are the calls of the source. No cut-off for these calls is given here.

Key:
[1] = Activity of hydroxysteroid dehydrogenase
[2] = Activity of peroxidase
L929 = test: Cytotoxicity against mouse L929 cells; assay type: functional, cell-based
K562 = test: Cytotoxicity against human K562 cells; assay type: functional, cell-based
HeLa = test: Cytotoxicity against human HeLa cells; assay type: functional, cell-based

| Activity [1] | Activity [2] | SMILES | Activity (L929) | Activity (K562) | Activity (HeLa) |
| --- | --- | --- | --- | --- | --- |
| inactive | inactive | CC(O)C(/C=C/C=C/C(=O)O)C(C)CC(C)C(O)CC(=O)c1ccc(N)cc1 (stereo not given) | inactive | inactive | inactive |
| inactive | inactive | CC(/C=C/C(=O)c1ccc(N)cc1)CC(C)C(=O)O (stereo not given) | inactive | inactive | inactive |
| inactive | inactive | C/C(=C\C(C)CC(C)C(O)CC(=O)c1ccc(N)cc1)C(=O)O (stereo not given) | inactive | inactive | inactive |
